Data on two compounds can be found in patent US8012503B2, “Method of enhancing absorptions of transmucosal administration formulations” (The Chinese University of Hong Kong, priority 2004, dated 2011).

In brackets after ≈: the same amount, converted by molar mass.

A short description of series [1]: pHmax calculated from Ka, Si and Su. It counts as physicochemical. The settings on record: calculated after determining Si and Su. An excerpt:
[formula] in which Ka is the ionization constant (dissociation constant) of the active compound in water, Si is the solubility of the ionized form of the compound, and Su is the solubility of the non-ionized form of the compound.
(§1) [formula] in which Ka is the ionization constant (dissociation constant) of the active compound of the medicament in water, Si is the solubility of the ionized form of the compound, and Su is the solubility of the non-ionized form of the compound. Si and Su can be easily obtained by measuring the drug solubility at two extreme pH levels where the ionized or non-ionized species are dominating. For example, after determining the Si and Su of propranolol and sildenafil, their pHmax values are calculated to be 7.62 and 4.25, respectively.
(§2) It has been investigated that permeability across the sublingual mucosa is dependent on the concentration of non-ionized propranolol in the environment. When a formulation of propranolol provides saliva with pH of about 7.2 to about 7.8, propranolol should maintain relatively high solubility as well as high fraction of non-ionized form in the saliva of human oral cavity. Preferably, the formulation for sublingual delivery is at about pH 7.6. This can be confirmed by equation (I). For propranolol.

The conditions of series [2]: oral administration of propranolol tablets, cited from earlier work.
Series [3] in a line: Solubility of ionized and non-ionized forms and ionization constant. It counts as physicochemical.
From the text: as §1, §2

As usually defined, the solubility is the concentration that dissolves in the medium under given conditions. Read a low solubility as little dissolved substance.

In the case of `CC(C)NCC(O)COc1cccc2ccccc12` (stereo not drawn) [propranolol, 1-(isopropylamino)-3-(1-naphthyloxy)-2-propanol], the pHmax in series [1] is 7.62. For the same compound, in series [2], the onset of action result is “over 1 hr” and the plasma half-life is 2.8 to 4.4 h. Moreover, in series [2] (hepatic first-pass effect), the bioavailability is on record as 10-30%. Besides, in series [3], the concentration in solution (solubility) came to 539 µg/mL (≈ 2080 µM).
Regarding `CCCc1nn(C)c2c(=O)[nH]c(-c3cc(S(=O)(=O)N4CCN(C)CC4)ccc3OCC)nc12` [sildenafil], the pHmax in series [1] was 4.25.
